From PMC7532674, “Synthesis and preliminary studies of ^11C-labeled tetrahydro-1,7-naphthyridine-2-carboxamides for PET imaging of metabotropic glutamate receptor 2” (Theranostics, 2020)

Experiments:
human mGlu3 = target: T1, human mGlu3 (Homo sapiens, UniProt Q14832); assay: Human mGlu3 GIRK thallium flux assay; type: cell-based; conditions: HEK293 cells, triplicate assays (14g duplicate)
T1 construct: expressed in transfected cells
Procedure: (§1) Cell Line Generation and Thallium Flux Assays. The general procedure for the preparation of human mGlu2 and mGlu3 was described previously, [56] with minor modifications in this work. The cloning sites were NheI/NotI for both receptors. HEK GIRK cells, generously provided by Lily Jan (University of California San Francisco, San Francisco, CA), were transfected with 24 μg of DNA using Fugene6 (Promega), stable transfectants were selected with 1 μg/mL puromycin dihydrochloride (Sigma-Aldrich, St. Louis, MO), and polyclonal human mGlu2 GIRK and mGlu3 GIRK cell lines were established. Cells were maintained following selection in 45% DMEM, 45% Ham's F12, 10% FBS, 100 units/mL penicillin/streptomycin, 20 mM HEPES, pH 7.3, 1 mM sodium pyruvate, 2 mM glutamine, 700 μg/mL G418 (Mediatech, Inc., Herndon, VA), and […] puromycin (growth media) at 37 °C in the presence of 5% CO2. All cell culture reagents were purchased from Invitrogen Corp. (Carlsbad, CA) unless otherwise noted.
(§2) Human mGlu2 and mGlu3 Thallium Flux in Vitro Assays. Potencies of these NAMs at both mGlu2 and mGlu3 were investigated by thallium flux through GIRK channels, which was disclosed in detail as well as described in our previous work. In particular, cells were plated into 384-well, black-walled, clear-bottomed poly(D-lysine_-coated plates at a density of 15 000 cells per well in 20 μL of DMEM containing 10% dialyzed FBS, 20 mM HEPES, and 100 units/mL penicillin/streptomycin (assay media). Plated cells were incubated overnight at 37 °C in the presence of 5% CO2. The next day, the medium was exchanged from the cells to assay buffer [Hanks' balanced salt solution (Invitrogen) containing 20 mM HEPES, pH 7.3] using an ELX405 microplate washer (BioTek), leaving 20 μL per well, followed by the addition of 20 μL per well of FluoZin2-AM (330 nM final concentration) indicator dye (Invitrogen; prepared as a stock in DMSO and mixed in a 1:1 ratio with Pluronic acid F-127) in assay buffer. Cells were incubated for 1 h at room temperature, and the dye was exchanged to assay buffer using an ELX405, leaving 20 μL per well. For concentration-response curve experiments, compounds were serially diluted 1:3 into 10 point concentration-response curves and were transferred to daughter plates using an Echo acoustic plate reformatter (Labcyte, Sunnyvale, CA). Test compounds were diluted to 2 times their final desired concentration in assay buffer (0.3% DMSO final concentration). Agonists were diluted in thallium buffer [125 mM sodium bicarbonate (added fresh the morning of the experiment), 1 mM magnesium sulfate, 1.8 mM calcium sulfate, 5 mM glucose, 12 mM thallium sulfate, and 10 mM HEPES, pH 7.3] at 5 times the final concentration to be assayed. Cell plates and compound plates were loaded onto a kinetic imaging plate reader (FDSS 6000 or 7000; Hamamatsu Corporation, Bridgewater, NJ). Appropriate baseline readings were taken (10 images at 1 Hz; excitation, 470 ± 20 nm; emission, 540 ± 30 nm), and test compounds were added in a 20 μL volume and incubated for approximately 1 h at room temperature before the addition of 10 μL of thallium buffer with or without an EC80 concentration of the agonist glutamate for affinity evaluation experiments or with a full concentration-response of glutamate for Schild analysis experiments. After the addition of agonist, data were collected for approximately an additional 2.5 min. Data were analyzed using Excel (Microsoft Corp, Redmond, WA). The slope of the fluorescence increase beginning 5 s after thallium/agonist addition and ending 15 s after thallium/agonist addition was calculated, corrected to vehicle and maximal agonist control slope values, and plotted using either XLfit (ID Business Solutions Ltd.) or Prism software (GraphPad Software, San Diego, CA) to generate concentration-response curves. Potencies were calculated from fits using a four-point parameter logistic equation.

human mGlu2 = target: T2, human mGlu2 (Homo sapiens, UniProt Q14416); assay: Human mGlu2 GIRK thallium flux assay; type: cell-based; conditions: HEK293 cells, EC80 glutamate, triplicate assays (14g duplicate)
T2 construct: expressed in transfected cells
T2 sequence (Q14416 19-872): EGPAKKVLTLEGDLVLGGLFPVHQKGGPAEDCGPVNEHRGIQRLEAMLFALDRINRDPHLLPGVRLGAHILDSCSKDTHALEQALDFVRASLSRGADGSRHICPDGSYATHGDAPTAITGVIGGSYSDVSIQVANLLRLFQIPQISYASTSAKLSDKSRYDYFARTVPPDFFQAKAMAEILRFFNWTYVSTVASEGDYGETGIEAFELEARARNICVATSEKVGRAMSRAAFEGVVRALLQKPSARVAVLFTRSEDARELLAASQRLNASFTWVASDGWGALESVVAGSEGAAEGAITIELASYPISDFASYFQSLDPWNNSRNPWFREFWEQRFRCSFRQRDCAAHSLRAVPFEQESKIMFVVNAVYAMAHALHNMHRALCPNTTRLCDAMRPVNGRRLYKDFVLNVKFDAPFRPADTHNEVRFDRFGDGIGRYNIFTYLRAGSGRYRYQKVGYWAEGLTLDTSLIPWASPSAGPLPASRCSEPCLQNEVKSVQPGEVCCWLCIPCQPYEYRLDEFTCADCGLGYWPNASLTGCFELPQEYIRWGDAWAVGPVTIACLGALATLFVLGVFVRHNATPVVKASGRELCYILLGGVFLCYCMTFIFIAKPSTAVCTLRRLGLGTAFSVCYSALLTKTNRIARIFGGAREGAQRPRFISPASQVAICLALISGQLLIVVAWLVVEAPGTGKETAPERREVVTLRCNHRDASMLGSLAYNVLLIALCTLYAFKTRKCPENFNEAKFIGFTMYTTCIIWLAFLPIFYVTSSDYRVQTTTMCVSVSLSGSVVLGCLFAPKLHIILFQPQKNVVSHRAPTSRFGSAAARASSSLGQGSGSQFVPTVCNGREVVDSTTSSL
Procedure: as §1, §2

mGlu2 [1] = target: T3, mGlu2 (Rattus norvegicus, UniProt P31421); assay: In vitro autoradiography in rat brain sections; type: binding; set-up: from tissue; host or cells: Sprague-Dawley rat brain sections; conditions: preincubated with unlabeled QCA, 14b or 14a at 10 µM
T3 sequence (P31421 19-872): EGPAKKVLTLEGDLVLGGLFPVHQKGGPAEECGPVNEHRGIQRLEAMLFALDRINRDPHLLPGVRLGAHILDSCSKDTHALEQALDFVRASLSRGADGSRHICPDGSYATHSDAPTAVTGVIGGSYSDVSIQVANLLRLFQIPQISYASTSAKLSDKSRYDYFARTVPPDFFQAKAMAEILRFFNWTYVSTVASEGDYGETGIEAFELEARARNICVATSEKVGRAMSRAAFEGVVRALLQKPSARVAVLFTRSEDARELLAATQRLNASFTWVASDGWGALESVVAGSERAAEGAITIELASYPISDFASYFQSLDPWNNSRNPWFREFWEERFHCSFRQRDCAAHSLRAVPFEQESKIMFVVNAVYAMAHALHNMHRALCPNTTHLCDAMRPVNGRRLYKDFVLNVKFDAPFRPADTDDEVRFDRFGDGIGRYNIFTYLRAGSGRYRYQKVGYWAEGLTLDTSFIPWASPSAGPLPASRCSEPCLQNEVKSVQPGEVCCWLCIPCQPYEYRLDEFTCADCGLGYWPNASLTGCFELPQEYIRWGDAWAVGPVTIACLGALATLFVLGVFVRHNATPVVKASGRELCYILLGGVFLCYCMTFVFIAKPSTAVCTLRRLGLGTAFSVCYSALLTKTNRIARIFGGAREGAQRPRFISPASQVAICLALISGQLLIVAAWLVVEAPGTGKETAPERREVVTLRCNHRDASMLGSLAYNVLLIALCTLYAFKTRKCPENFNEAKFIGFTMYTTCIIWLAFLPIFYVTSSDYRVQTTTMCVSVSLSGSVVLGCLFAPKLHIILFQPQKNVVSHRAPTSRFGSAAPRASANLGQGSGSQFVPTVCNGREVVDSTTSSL
Procedure: Sagittal rat brain slices were prepared into 20 μm sections with a cryostat (HM560; Carl Zeiss, Oberkochen, Germany), mounted on air plasma spray-coated glass slides, and stored at -80 °C before used for experiments. The sections were preincubated for 15 min in a glass tank containing 200 mL of Tris·HCl buffer (50 mM, pH 7.4) consisting of 2 mM of MgCl2 and 1.2 mM of CaCl2 at room temperature. After preincubation, the sections were incubated in a fresh buffer containing [^11C]14a or [^11C]14b (250 µCi in 200 mL buffer; molar activity 2.7 Ci/µmol of [^11C]14a and 2.5 Ci/µmol of [^11C]14b, respectively) in the glass tank for 30 min at room temperature. For blocking studies, non-radioactive 14a or 14b (10 μM) and QCA (10 μM) were chosen to determine the specificity of radiotracers for binding mGlu2. Six serial brain sections were used for each conditions. After incubation, brain sections were washed with cold buffer (3 × 5 min), immersed in cold distilled water, and then dried with cold air. The sections were placed in contact with imaging plates (BAS-MS2025, FUJIFILM, Tokyo, Japan). Autoradiograms were obtained and photostimulated luminescence (PSL) values in the ROIs were measured using a Bio-Imaging Analyzer System (BAS5000, FUJIFILM).

mGlu2 [2] = target: T3, mGlu2; assay: Dynamic PET imaging in rat brain; type: in vivo, SD rats; set-up: from tissue; host or cells: brain of living SD rats
Procedure: As we previously reported, PET scans were carried out by an Inveon PET scanner (Siemens Medical Solutions, Knoxville, TN, USA). During the scan, SD rats were anesthetized by oxygen mixed with 1-2% (v/v) isoflurane and kept body temperature at […] by a commercially available circulation system (T/Pump TP401, Gaymar Industries, Orchard Park, NY). A 24-gauge catheter was inserted into the tail vein to facilitate a bolus injection. The radiotracer [^11C]14a or [^11C]14b (ca. 1 mCi / 150-200 μL) was injected into the rat via the preinstalled catheter, and the dynamic acquisition of PET signals in rat brain was started at the same time and lasted for 60 min in 3D list mode. For pretreatment studies, 14a (1 mg/kg for [^11C]14a for self-blocking study in Figure S2; 3 mg/kg for [^11C]14b for blocking study in Figure S12C) or 14b (1 mg/kg for [^11C]14b for self-blocking study in Figure S12B), formulated in 300 μL of saline containing 10% ethanol and 5% Tween 80, was injected at 30 min via the tail vein catheter prior to the injection of [^11C]14a or [^11C]14b. The dynamic emission data were reconstructed by filtered back projection using Hanning's filter with a Nyquist cutoff of 0.5 cycle/pixel into 33 frames (10 s × twelve frames, 20 s × three frames, 30 s × three frames, 60 s × three frames, 150 s × three frames, and 300 s × nine frames). The TACs of [^11C]14a or [^11C]14b were analyzed from volumes of interest in the striatum, hippocampus, cortex, thalamus, pons and cerebellum normalized to a rat brain MRI template using PMOD software (version 3.4; PMOD technology, Zurich, Switzerland). The radioactivity was decay-corrected to the injection time and expressed as the standardized uptake value (SUV) which equals to (radioactivity per milliliter of tissue per injected radioactivity) × (gram of body weight). To obtain non-displaceable binding potential (BPND), simplified reference tissue model (SRTM), [54] was carried out on the basis of kinetic analysis using PMOD software. We acquired BP-parametric images using kinetic modeling without masking. Respective TACs in receptor-rich or -poor region were loaded for production of BP-map with default setting. Representative parametric images scaled with BPND were reconstructed by PMOD software using TACs in mGlu2-enriched and reference regions. Pons was selected as the reference region for mGlu2 (the lowest and consistent brain uptake and washout kinetics between baseline and blocking conditions). It should be noted that while there is a low-level expression of mGlu2 in the pons, it is not without existence. A reference region should be a region devoid of the target, but with similar tracer transport or diffusion to the other regions of interest with expression of the target. Therefore, there are some limitations when using pons as the reference region. For example, the partial volume effect in PET likely leads to spillover of activity from nearby higher uptake regions into the pons, artificially increasing the time-activity curve in the pons.

mGlu2 [3] = conditions: cited from earlier work

T1 sequence (Q14832 23-879): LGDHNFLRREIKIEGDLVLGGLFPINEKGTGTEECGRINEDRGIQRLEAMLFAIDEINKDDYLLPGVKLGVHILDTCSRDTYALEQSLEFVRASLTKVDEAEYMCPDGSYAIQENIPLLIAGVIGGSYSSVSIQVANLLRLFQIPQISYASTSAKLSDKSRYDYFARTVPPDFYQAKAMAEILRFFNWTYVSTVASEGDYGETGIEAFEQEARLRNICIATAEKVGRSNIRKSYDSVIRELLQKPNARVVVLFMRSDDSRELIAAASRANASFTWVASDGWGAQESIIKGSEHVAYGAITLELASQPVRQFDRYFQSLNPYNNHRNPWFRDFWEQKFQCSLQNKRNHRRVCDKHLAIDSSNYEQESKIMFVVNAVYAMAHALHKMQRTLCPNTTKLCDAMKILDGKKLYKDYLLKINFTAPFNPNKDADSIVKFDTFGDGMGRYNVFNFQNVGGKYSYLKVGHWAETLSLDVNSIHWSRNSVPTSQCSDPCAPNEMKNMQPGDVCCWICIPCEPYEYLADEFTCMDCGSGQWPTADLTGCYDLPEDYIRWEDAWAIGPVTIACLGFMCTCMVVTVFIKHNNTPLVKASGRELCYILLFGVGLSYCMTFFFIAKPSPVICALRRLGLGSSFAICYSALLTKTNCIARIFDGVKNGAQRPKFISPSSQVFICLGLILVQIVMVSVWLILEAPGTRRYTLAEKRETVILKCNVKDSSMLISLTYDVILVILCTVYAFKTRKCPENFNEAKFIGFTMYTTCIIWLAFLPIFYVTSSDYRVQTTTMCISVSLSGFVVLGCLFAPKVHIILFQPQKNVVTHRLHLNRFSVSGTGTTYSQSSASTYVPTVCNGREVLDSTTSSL

COc1ccc(-c2cc(C(N)=O)nc3c2CCN(Cc2ccnc(OC)c2)C3)c(F)c1 [14a, 4-(2-fluoro-4-methoxyphenyl)-7-((2-methoxypyridin-4-yl)methyl)-5,6,7,8-tetrahydro-1,7-naphthyridine-2-carboxamide]
IC50 (human mGlu3): > 10 µM
IC50 (human mGlu2): 39 nM

COc1cc(CN2CCc3c(-c4ccc(C)cc4F)cc(C(N)=O)nc3C2)ccn1 [14c, 4-(2-fluoro-4-methyphenyl)-7-((2-methoxypyridin-4-yl)methyl)-5,6,7,8-tetrahydro-1,7-naphthyridine-2-carboxamide]
IC50 (human mGlu3): > 10 µM
IC50 (human mGlu2): 129 nM

COc1cc(CN2CCc3c(-c4ccc(F)cc4OC)cc(C(N)=O)nc3C2)ccn1 [14d, 4-(4-fluoro-2-methoxyphenyl)-7-((2-methoxypyridin-4-yl)methyl)-5,6,7,8-tetrahydro-1,7-naphthyridine-2-carboxamide]
IC50 (human mGlu3): > 10 µM
IC50 (human mGlu2): 39 nM

COc1ncc(CN2CCc3c(-c4ccc(C)cc4F)cc(C(N)=O)nc3C2)cn1 [14e, 4-(2-fluoro-4-methyphenyl)-7-((2-methoxypyrimidin-5-yl)methyl)-5,6,7,8-tetrahydro-1,7-naphthyridine-2-carboxamide]
IC50 (human mGlu3): > 10 µM
IC50 (human mGlu2): 106 nM

COc1ccc(-c2cc(C(N)=O)nc3c2CCN(Cc2cnc(OC)nc2)C3)c(F)c1 [14f, 4-(2-fluoro-4-methoxyphenyl)-7-((2-methoxypyrimidin-5-yl)methyl)-5,6,7,8-tetrahydro-1,7-naphthyridine-2-carboxamide]
IC50 (human mGlu3): > 10 µM
IC50 (human mGlu2): 318 nM

COc1cc(CN2CCc3c(-c4ccc(F)cc4Cl)cc(C(N)=O)nc3C2)ccn1 [14g]
IC50 (human mGlu3): > 30 µM
IC50 (human mGlu2): 87 nM

COc1cc(CN2CCc3c(-c4ccc(O[11CH3])cc4F)cc(C(N)=O)nc3C2)ccn1 [[^11C]14a, 4-(2-fluoro-4-(methoxy-^11C)phenyl)-7-((2-methoxy-pyridin-4-yl)methyl)-5,6,7,8-tetrahydro-1,7-naphthyridine-2-carboxamide]
Decrease of region-to-pons ratios under blocking (mGlu2 [1]): 17-54%
Peak uptake in the striatum (mGlu2 [2]; SD rats, at 2.5 min): 1.7 SUV
Time of peak radioactivity in brain regions (mGlu2 [2]; SD rats, i.v.): 2.5 min
In vivo specificity (mGlu2 [2]; pretreatment with 14a (1 mg/kg)): low-to-modest

[11CH3]Oc1ccc(C2CCN(c3ccn(CC4CC4)c(=O)c3C#N)CC2)cc1 [[^11C]CMDC, 1-(cyclopropylmethyl)-4-(4-[^11C]methoxyphenyl)-piperidin-1-yl-2-oxo-1,2-dihydropyridine-3-carbonitrile]
IC50 (mGlu2 [3]): 98 nM

[11CH3]Oc1cccc(CC[C@@](N)(C(=O)O)[C@H]2C[C@@H]2C(=O)O)c1 [[^11C]CMG]
IC50 (mGlu2 [3]): 94 nM

[11CH3]Oc1c(F)ccc(F)c1C1CCN(c2ccn3c(CC4CC4)nnc3c2Cl)CC1 [[^11C]JNJ42491293]
IC50 (mGlu2 [3]): 7.5 nM
